This note sets out measurements from patent US20240245680A1, “Methods of Treating Retinal Vasculopathies” (Unity Biotechnology, Inc., priority 2021, published 2024).

SMILES strings stand for the structures.

In one experiment the test system is DDIT3 expression. The experiment can be described thus: DDIT3 gene expression (qPCR) in HRMEC. The format is cell-based, human. To be noted: five hours, quarter-log dilutions from 10 μM, qPCR (FIG. 10C). The method, then: Primary Human Retinal Microvascular Endothelial Cells (HRMEC—Cell Systems™ Corp., ACBRI 181; Lot #181.04.02.02.02) were cultured in Vascular Cell Basal Medium (ATCC® Lot 90909277) with Endothelial Cell Growth Kit-VEGF (ATCC Lot 80720201) with additional FBS added to a final concentration of 5% FBS. Cells were seeded in a 96-well plate at near confluency and treated the next day with Compound 39 for five hours. A dose response was generated using quarter-log dilutions using 10 μM as the starting concentration. Following treatment, RNA was extracted using the RNeasy® 96-Kit (Qiagen®), and cDNA was next generated using Superscript™ IV VILO™ Master Mix (Thermofisher®). qPCR was performed using standard TaqMan® reagents and conditions. DDTI3 gene expression was detected using primer Hs00358796_g1 and Tbp was used as a control gene using primer (Hs99999910_m1). Peak activation of DDIT3 expression was detected at ˜250 nM Compound 39.
Background: In qPCR the cycle at which signal appears reflects the starting amount.

For experiment [1], the system named is ATF4, p-eIF2a, HIF1α protein in retina. Description: Retinal immunoblot of ATF4, p-eIF2a and HIF1α after IP dosing, normoxic and OIR retinas. The format is in vivo, mouse. To be noted: IP 30 mpk, 4 hours after administration, OIR neonates, immunoblot (FIG. 13). The method, then:
Normoxic and OIR eye retinas were dissected 4 hours after Compound 39 administration and the harvested samples were kept on ice and homogenized using Precellys (500 μL tubes) tissue homogenizer in 300 μL LSD Sample/Lysis buffer. Homogenized samples were then centrifuged to separate supernatant from debris. Lysates were separated by SDS-PAGE and immunoblotted for ATF4 (D4B8), p-eIF2a (D9G8), and HIF1α (Novus™, cat. NB100-449) and control protein Actinin (Cell Signaling™, cat. 3134S).

The test system of experiment [2] is p-eIF2a, ATF4, DDIT3 (CHOP). Description: Immunoblot of p-eIF2a, ATF4 and DDIT3 in mouse embryonic fibroblasts. The experiment is classed as cell-based. To be noted: MEF cells, 250 nM, five hours, immunoblot (FIG. 10B). The method, then: Next, mouse embryonic fibroblasts (MEF) cells were cultured to near confluency and treated for five hours with a fixed concentration (250 nM) of Compound 39. Cells were harvested in LSD lysis buffer and homogenates were separated by SDS-PAGE. Immunoblotting was performed overnight using antibodies targeting p-eIF2a (Clone D9G8), ATF4 (Clone D4B8), and DNA damage inducible transcript 3 (DDIT3) (Clone 9C8). Compound 39 treatment increases the levels of phospho-eIF2a (p-eIF2a) as well as ATF4 and DDIT3 (CHOP).
(Immunoblotting shows a protein as a band on a membrane.)

In a further experiment the test system is cellular ATF4 protein. Description: ATF4-HiBiT reporter assay in H2122 cells (GCN2 pathway activation). The following applies: five hours, quarter-log dilutions from 10 μM (FIG. 10A). The format is cell-based. The method, then:
Without any limitations, such assays may be used to test other compounds for GCN2 pathway activation. Activating transcription factor 4 (ATF4) was C-terminally tagged in H2122 cells (CRL-5985™) with a high affinity luciferase complementation fragment (HiBiT) through a knock-in approach using CRISPR-Cas12a technology and a single-stranded oligo DNA nucleotides (ssODNs) template carrying the HiBiT tag. Following reporter cell-line generation (H2122 ATF4-HiBIT) cells were seeded in a 96-well plate at near confluency and treated the next day with Compound 39 for five hours. A dose response was generated using quarter-log dilutions using 10 μM as the starting concentration. The Nano-Glo® HiBiT Lytic Detection (Promega®) reagent was added after five hours and allowed for plate-based bioluminescent quantification of cellular ATF4 protein using an add-mix-read assay format. Peak activation of ATF4 expression was detected at ˜250 nM of Compound 39.
On the technique in general: The HiBiT peptide binds its large partner to form an active luciferase.

In experiment [3] the test system is ATF4 and DDIT3 gene expression in retina. Description: Retinal Atf4 and Ddit3 gene expression after IP dosing, normoxic and OIR neonatal mice. To be noted: IP 10, 30 or 90 mpk at P12, 4 or 24 hours. The experiment is classed as in vivo, mouse. The method, then:
(§1) Compound 39 was tested in an animal model that shares many hallmarks with human ischemic retinopathies, the oxygen-induced retinopathy (OIR) neonatal mouse. To investigate the pharmacodynamic effect of Compound 39, it was intraperitoneally (IP) administered at either 10, 30, or 90 mpk. The dosing formulation was based on a vehicle comprising 1% Pluronic F-68/1% HPMC, 15% captisol. Both normoxic and OIR neonates were treated at P12 (the end of hyperoxia) and taken down after 4 hours, or 24 hours later at P13. Retinas were dissected, and RNA was extracted using a fully automated, spin-column-based nucleic acid extraction instrument (Qiacube Connect™). qPCR was performed using standard TaqMan® reagents and conditions. Atf4, Ddit3, and Tbp (control) gene expression was determined using primers: Mm00515324_m1, Mm00492097_m1, and Mm01277042_m1, respectively.

In experiment [4] the test system is Slc7a11 and Serpinf1 gene expression in retina. The experiment can be described thus: Retinal Slc7a11 and Serpinf1 gene expression after IP dosing, normoxic and OIR neonatal mice. The following applies: IP 10, 30 or 90 mpk at P12, 4 or 24 hours. The format is in vivo, mouse. The method, then: as §1, with “To” for “Compound 39 was tested in an animal model that shares many hallmarks with human ischemic retinopathies, the oxygen-induced retinopathy (OIR) neonatal mouse. To”, “administrated” for “(IP) administered”, “mpk in both normoxic and OIR neonatal mice.” for “mpk.”, “TaqMan” for “TaqMan®”, “Slc7a11, Serpinf1,” for “Atf4, Ddit3,”, “primers Mm00442530_m1, Mm00441270_m1,” for “primers: Mm00515324_m1, Mm00492097_m1,”

Another experiment relates to GCN2. The experiment can be described thus: DDIT3 gene expression (qPCR) in GCN2 knockout, PERK knockout and WT cells. The experiment is classed as cell-based. The following applies: GCN2 knockout, 250 nM, five hours, qPCR (FIG. 10D). The method, then:
To determine if DDIT3 activation by Compound 39 is dependent on GCN2 activation, rather than PERK, the following experiment was performed. GCN2 knockout cells (CRL-2978™), PERK knockout cells (CRL-2976™), or WT controls cells (ATCC CRL-2977™) were cultured to near confluency and treated for five hours with a fixed concentration (250 nM) of Compound 39. Following treatment, RNA was extracted using the RNeasy® 96-Kit (Qiagen), and cDNA was next generated using Superscript™ IV VILO™ Master Mix (Thermofisher®). qPCR was performed using standard TaqMan reagents and conditions. DDIT3 gene expression was detected using primer Hs00358796_g1 and Tbp was used as a control gene using primer (Hs99999910_m1).

Turning to `CNc1nc2ccc(-c3c(C)ccc(C(=O)c4c(-c5ccccc5)n(C)n(-c5ccccc5)c4=O)c3N)cc2s1` [Compound 39, 4-(2-Amino-4-methyl-3-(2-(methylamino)benzo[d]thiazol-6-yl)benzoyl)-1-methyl-2,5-diphenyl-1H-pyrazol-3(2H)-one], the “concentration of peak activation of DDIT3 expression” value with DDIT3 expression was about 250 nM. Moreover, in experiment [1], the “HIF1α protein levels in retina” value was “downregulated”, the “levels of ATF4 protein in retina” value is reported as “increased” and the “phospho-eIF2α levels in retina” value is listed as “increased”. For the same compound, in experiment [2], the “levels of ATF4” value was “increases”, the “levels of DDIT3 (CHOP)” value is “increases” and the “levels of phospho-eIF2a (p-eIF2a)” value was “increases”. The “concentration of peak activation of ATF4 expression” value in the experiment on cellular ATF4 protein is recorded as about 250 nM. Besides, in experiment [3] (normoxic and OIR neonates (FIG. 11A)), the “induction of ATF4 gene expression in retina” value was “dose-dependent induction”. The “induction of DDIT3 gene expression in retina” value in experiment [3] (normoxic and OIR neonates (FIG. 11B)) is reported as “dose-dependent induction”. The “induction of retinal Slc7a11 gene expression” value in experiment [4] (normoxic and OIR neonatal mice (FIG. 12A)) was “dose-dependent induction”. In experiment [4] (normoxic and OIR neonatal mice (FIG. 12B)), the “induction of retinal Serpinf1 gene expression” value is on record as “dose-dependent induction”. The “dependence of DDIT3 induction on GCN2 or PERK” value with GCN2 is “dependent on GCN2 but not PERK”.
